Assay results from patent publication US12077503B2, “Substituted cyclic amides and their use as herbicides” (FMC CORPORATION, priority 2015, dated 2024).

Legend:
Format in all cases: in vivo
corn (Zea mays) [1] = experiment: Test G Post-Emergence Protocol; details: Zea mays, post-emergence, 312 h, read-out: Corn damage rating
How it was run: (§1)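 Damage was rated 13 days after treatment from 0 (none) to 100 (plant killed). Compound was applied as a spray at 15.625, 62.5 or 250 g/ha in 50:50 acetone/water containing 0.5% Tween 20, onto 8-day-old potted plants kept in a glasshouse (24/16 °C, 14 h light, 65% humidity).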

[2] = system: velvetleaf (Abutilon theophrasti); experiment: Test G Post-Emergence Protocol; details: Abutilon theophrasti, post-emergence, 312 h, read-out: Velvetleaf damage rating
How it was run: as §1

[3] = system: barnyardgrass (Echinochloa crus-galli); experiment: Test G Post-Emergence Protocol; details: Echinochloa crus-galli, post-emergence, 312 h, read-out: Barnyardgrass damage rating
How it was run: as §1

[4] = system: giant foxtail (Setaria faberi); experiment: Test G Post-Emergence Protocol; details: Setaria faberi, post-emergence, 312 h, read-out: Foxtail, Giant damage rating
How it was run: as §1

[5] = system: redroot pigweed (Amaranthus retroflexus); experiment: Test G Post-Emergence Protocol; details: Amaranthus retroflexus, post-emergence, 312 h, read-out: Pigweed, Redroot damage rating
How it was run: as §1

[6] = system: ivy-leaved morning glory (Ipomoea hederacea); experiment: Test G Post-Emergence Protocol; details: Ipomoea, post-emergence, 312 h, read-out: Morningglory, Ivy-leaved damage rating
How it was run: as §1

corn (Zea mays) [7] = experiment: Test G Pre-Emergence Protocol; details: Zea mays, pre-emergence, 312 h, evaluated after 13 days
How it was run: (§2)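 Seeds were sown in standard soil and kept one day in a glasshouse (24/16° C day/night, 14 h light, 65% humidity), then sprayed with compound in acetone/water (50:50) containing 0.5% Tween 20 at 15.625, 62.5 or 250 g/ha. Damage was scored after 13 days (0 = none, 100 = total).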

[8] = system: velvetleaf (Abutilon theophrasti); experiment: Test G Pre-Emergence Protocol; details: Abutilon theophrasti, pre-emergence, 312 h, evaluated after 13 days
How it was run: as §2

[9] = system: barnyardgrass (Echinochloa crus-galli); experiment: Test G Pre-Emergence Protocol; details: Echinochloa crus-galli, pre-emergence, 312 h, evaluated after 13 days
How it was run: as §2

[10] = system: giant foxtail (Setaria faberi); experiment: Test G Pre-Emergence Protocol; details: Setaria faberi, pre-emergence, 312 h, evaluated after 13 days
How it was run: as §2

[11] = system: redroot pigweed (Amaranthus retroflexus); experiment: Test G Pre-Emergence Protocol; details: Amaranthus retroflexus, pre-emergence, 312 h, evaluated after 13 days
How it was run: as §2

[12] = system: ivy-leaved morning glory (Ipomoea hederacea); experiment: Test G Pre-Emergence Protocol; details: Ipomoea, pre-emergence, 312 h, evaluated after 13 days
How it was run: as §2

[13] = 15.625 g ai/ha, evaluated after 13 days (100=total damage to plant; 0=no damage to plant)
[14] = 62.5 g ai/ha, evaluated after 13 days, 100=total damage to plant, 0=no damage to plant
[15] = 250 g ai/ha, evaluated after 13 days, 100=total damage to plant, 0=no damage to plant

## CC(C)Oc1cc(OC(F)(F)F)cc(C2CN(C)C(=O)C2C(=O)Nc2cccc(F)c2F)c1 (stereo not drawn) [Compound 1726]
Corn (Zea mays) [1]; [13]
  plant injury at 15.625 g/ha: 10%
Corn (Zea mays) [1]; [14]
  plant injury at 62.5 g/ha: 30%
Corn (Zea mays) [1]; [15]
  plant injury at 250 g/ha: 70%
[2]; [13]
  pest or weed control at 15.625 g/ha: 0%
[2]; [14]
  pest or weed control at 62.5 g/ha: 0%
[2]; [15]
  pest or weed control at 250 g/ha: 20%
[3]; [13]
  pest or weed control at 15.625 g/ha: 0%
[3]; [14]
  pest or weed control at 62.5 g/ha: 30%
[3]; [15]
  pest or weed control at 250 g/ha: 70%
[4]; [13]
  pest or weed control at 15.625 g/ha: 0%
[4]; [14]
  pest or weed control at 62.5 g/ha: 70%
[4]; [15]
  pest or weed control at 250 g/ha: 70%
[5]; [13]
  pest or weed control at 15.625 g/ha: 20%
[5]; [14]
  pest or weed control at 62.5 g/ha: 0%
[5]; [15]
  pest or weed control at 250 g/ha: 40%
[6]; [13]
  pest or weed control at 15.625 g/ha: 10%
[6]; [14]
  pest or weed control at 62.5 g/ha: 10%
[6]; [15]
  pest or weed control at 250 g/ha: 70%
Corn (Zea mays) [7]; 15.625 g ai/ha, read-out: Corn damage rating (100=total damage to plant; 0=no damage to plant)
  plant injury at 15.625 g/ha: 0%
Corn (Zea mays) [7]; 62.5 g ai/ha, 100=total damage to plant, 0=no damage to plant, read-out: Corn damage rating
  plant injury at 62.5 g/ha: 0%
Corn (Zea mays) [7]; 250 g ai/ha, read-out: Corn damage rating (100=total damage to plant; 0=no damage to plant)
  plant injury at 250 g/ha: 30%
[8]; 15.625 g ai/ha, read-out: Velvetleaf damage rating (100=total damage to plant; 0=no damage to plant)
  pest or weed control at 15.625 g/ha: 0%
[8]; 62.5 g ai/ha, 100=total damage to plant, 0=no damage to plant, read-out: Velvetleaf damage rating
  pest or weed control at 62.5 g/ha: 0%
[8]; 250 g ai/ha, read-out: Velvetleaf damage rating (100=total damage to plant; 0=no damage to plant)
  pest or weed control at 250 g/ha: 0%
[9]; 15.625 g ai/ha, read-out: Barnyardgrass damage rating (100=total damage to plant; 0=no damage to plant)
  pest or weed control at 15.625 g/ha: 0%
[9]; 62.5 g ai/ha, 100=total damage to plant, 0=no damage to plant, read-out: Barnyardgrass damage rating
  pest or weed control at 62.5 g/ha: 50%
[9]; 250 g ai/ha, read-out: Barnyardgrass damage rating (100=total damage to plant; 0=no damage to plant)
  pest or weed control at 250 g/ha: 70%
[10]; 15.625 g ai/ha, read-out: Foxtail, Giant damage rating (100=total damage to plant; 0=no damage to plant)
  pest or weed control at 15.625 g/ha: 10%
[10]; 62.5 g ai/ha, 100=total damage to plant, 0=no damage to plant, read-out: Foxtail, Giant damage rating
  pest or weed control at 62.5 g/ha: 50%
[10]; 250 g ai/ha, read-out: Foxtail, Giant damage rating (100=total damage to plant; 0=no damage to plant)
  pest or weed control at 250 g/ha: 80%
[11]; 15.625 g ai/ha, read-out: Pigweed, Redroot damage rating (100=total damage to plant; 0=no damage to plant)
  pest or weed control at 15.625 g/ha: 0%
[11]; 62.5 g ai/ha, 100=total damage to plant, 0=no damage to plant, read-out: Pigweed, Redroot damage rating
  pest or weed control at 62.5 g/ha: 0%
[11]; 250 g ai/ha, read-out: Pigweed, Redroot damage rating (100=total damage to plant; 0=no damage to plant)
  pest or weed control at 250 g/ha: 10%
[12]; 15.625 g ai/ha, read-out: Morningglory, Ivy-leaved damage rating (100=total damage to plant; 0=no damage to plant)
  pest or weed control at 15.625 g/ha: 0%
[12]; 62.5 g ai/ha, 100=total damage to plant, 0=no damage to plant, read-out: Morningglory, Ivy-leaved damage rating
  pest or weed control at 62.5 g/ha: 0%
[12]; 250 g ai/ha, read-out: Morningglory, Ivy-leaved damage rating (100=total damage to plant; 0=no damage to plant)
  pest or weed control at 250 g/ha: 0%
